Values of other authors, collected in patent US20130084272A1, “COMPOSITIONS, KITS AND METHODS FOR NUTRITIONAL SUPPLEMENTATION WITH TWELVE CARBON CHAIN FATTY ACIDS AND TWELVE CARBON CHAIN ACYLGLYCEROLS” (priority 2011, published 2013).

System: exotoxins from Gram-positive bacteria
Conditions: Peterson et al. 2006; cited from earlier work

CCCCCCCCCCCC(=O)OCC(O)CO (stereo not shown) [monolaurin, glycerol monolaurate]
Effect on exotoxins from Gram-positive bacteria: inhibit the effects of exotoxins
